The test system of one data set is Vα14 NKT cells. The following applies: mice; cited from earlier work.
For data set [1] the following is noted: mouse, in vivo; cited from earlier work.
Data set [2] has as its system P. yoelii sporozoites. The experiment in a line: Protection against blood infection (parasitemia in thin blood smears) after challenge with 50 viable sporozoites.
From the text: To further assess the adjuvant activity of α-GalCer co-administered with vaccines, parasitemia (i.e., the presence of parasites in the blood) was monitored daily by microscopic examination of thin blood smears. Briefly, BALB/c mice were immunized either intravenously with 1×10^4 γ-spz or subcutaneously with 1×10^7 p.f.u. of AdPyCS, doses which otherwise fail to confer protection against malaria, with or without α-GalCer treatment. Two weeks later, all mice were challenged with 50 viable P. yoelii sporozoites, and determined the occurrence of blood infection by monitoring parasitemia.
To determine the adjuvant effect of α-GalCer on the duration of protection against malaria, parasitemia (i.e., the presence of the parasites in the blood) was monitored daily via microscopic inspection of thin blood smears in two separate experiments. In experiment 1, two groups of mice, one treated with α-GalCer and the other untreated, were immunized with 1×10^4 γ-spz, a dose that fails to confer protection against malaria 2 weeks after immunization. Two weeks later, all mice were challenged with 50 viable P. yoelii sporozoites, and the occurrence of blood infection was determined by monitoring parasitemia. In experiment 2, two groups of mice, one treated with α-GalCer and the other untreated, were immunized with 1×10^5 γ-spz, a dose that induces complete protection 2 weeks after immunization but not 4 weeks after. Four weeks later, these immunized mice, as well as naive controls were challenged with 50 live sporozoites, and the course of infection was determined as described above.
The subject of a further data set is P. yoeli. Particulars: α-GalCer alone, cited from earlier work.
The test system of data set [3] is circumsporozoite (CS) protein. Kind of data set: Anti-CS antibody titers and isotypes by ELISA. Format: in vivo, P. yoelii. The following applies: γ-spz-immunized mice. The protocol:
Sera of immunized mice were obtained prior to their challenge with sporozoites, and the levels of CS-specific IgM, IgG1, IgG2a, and IgE isotypes were measured using the Mouse Hybridoma Subtyping Kit (Boehringer Mannheim, Mannheim, Germany). Briefly, plates were coated with […] of B cell epitope (QGPGAP)2 (Charoenvit et al., J. Immunol., 146: 1020-1025, 1991) of the P. yoelii CS protein, blocked with PBS containing 1% BSA, and incubated for 1 hour with 1:5 dilution of sera from immunized and non-immunized mice. The plates were then washed and anti-mouse IgM, IgG1a, IgG2a (Boehringer Mannheim) and IgE (Southern Biotechnology Associates, Inc., Birmingham, Ala.) conjugated to peroxidase were added, followed by incubation with the substratre 2,2-Azino-di-[3-ethylbenzthiazoline sulfonate (6)], according the manufacture's instruction.
(§1) The present inventors also determined the titers of anti-sporozoite antibodies using an immunofluorescence assay(IFA) of air-dried P. yoelii sporozoites, as well as the titers of antibody against the circumsporozoite (CS) protein, the major surface antigen of sporozoites, using ELISA. The antibody titers were identical among the groups of γ-spz-immunized mice regardless of whether or not they received α-GalCer (FIG. 1A).
In general terms: ELISA stands for enzyme-linked immunosorbent assay.

Data set [4] relates to p18-specific CD8+ T cells (p18 protein of HIV). Kind of data set: ELISPOT assay of HIV p18-specific CD8+ T cells from immunized mice. Particulars: mice immunized with CD8+ T cell epitope […] of p18 of HIV.
Method: An ELISPOT assay was performed to determine the number of CS-specific CD4+ and CD8+ T cells, producing IFN-γ or IL-4 (Miyahira et al., J. Immunol. Methods, 181: 45-54, 1995). Briefly, 96 well nitrocellulose plates (Millipore, Bedford, Mass.) were coated with anti-mouse IFN-γ monoclonal antibodies (mAb), or anti-mouse IL-4 mAb. After overnight incubation at room temperature, the wells were washed repeatedly and blocked with culture medium for 1 hour at 37° C. […] After irradiating the peptide-pulsed target cells, the cells were added to the ELISPOT wells. Untreated target cells were used as negative controls. Serially diluted lymphocytes isolated from the spleen or lymph nodes of immunized mice were co-cultured with 1.5×10^5 target cells in the ELISPOT wells. After incubating the plates 24 h for IFN-γ detection or 48 h for IL-4 detection at 37° C. and 5% CO2, the plates were treated as previously described (Rodrigues et al., J. Immunol., 158: 1268-1274, 1997), and the number of spots corresponding to IFN-γ and IL-4 secreting cells determined.
For data set [5] the following is noted: independently of dosage; cited from earlier work.
Data set [6] relates to P. yoelii sporozoites. The experiment in a line: Anti-sporozoite antibody titers by indirect immunofluorescence assay (IFA). It is filed as in vivo, Plasmodium yoelii. Particulars: γ-spz-immunized BALB/c mice. Here is the method: Sera of immunized mice were obtained just before their challenge with sporozoites, and their Ab titers were measured using P. yoelii sporozoites in an indirect immunofluorescence assay (IFA). In brief, P. yoelii sporozoites were placed on multispot glass slides, and air-dried. After 1 hour of incubation with the sera, diluted in PBS containing 1% BSA, the slides were washed with PBS and incubated 1 hour with FITC- labelled affinity purified goat anti-mouse Ab (Kirkegaard & Perry Laboratories, Gaithersburg, Md.). The slides were then washed and mounted in PBS containing 50% (v/v) glycerol and 1% (w/v) Evans blue to reduce bleaching. The highest serum dilution resulting in fluorescence of the sporozoites was considered to be the IFA titer. Measurement of Ab Isotype Level by ELISA.
as §1

The subject of another data set is B 16-bearing mice. Particulars: cited from earlier work.
Data set [7] concerns nucleoprotein (NP) of the influenza A virus. Kind of data set: CD8+ T cell anti-influenza response after recombinant Sindbis virus expressing NP epitope. Format: in vivo. The following applies: suboptimal dose (10^5 p.f.u.) recombinant Sindbis virus expressing epitope TYQRTRALV, with α-GalCer. The source says: In yet another specific embodiment, an antigen of the invention is influenza A virus-specific.

For another data set, the system named is P. berghei. Particulars: mice; α-GalCer alone; cited from earlier work.
For data set [8] the following is noted: in vivo; cited from earlier work.
Data set [9] concerns P. yoelii sporozoites. Kind of data set: Parasite rRNA in the liver after live sporozoite challenge of immunized mice (real-time RT-PCR). A general note: Quantitative PCR measures a nucleic acid by following its amplification.
For data set [10] the following is noted: independently of dosage; cited from earlier work. This is another data set of the same source.
Setting [11] is: BALB/c mice, i.v. 1 × 10^4 γ-spz or s.c. 1 × 10^7 p.f.u. AdPyCS, with or without α-GalCer, challenge with 50 viable P. yoelii sporozoites two weeks later.
Setting [12] is: BALB/c mice, 2 μg α-GalCer, 1×10^4 γ-spz i.v.

Results on five compounds are retold here after patent US7488491B2, “Use of glycosylceramides as adjuvants for vaccines against infections and cancer” (New York University, priority 2001, dated 2009).

SMILES strings stand for the structures. Entries after “also recorded” stand apart in the source; their conditions may differ.

On to `CCCCCCCCCCCCCCCCCCCCCC[C@@H](O)C(=O)N[C@@H](COC1OC(CO)C(O)C(OC2OC([C@H](O)CO)C(O)C2O)C1O)[C@H](O)[C@H](O)CCCCCCCCCCCCCC` (stereo partly drawn) [Galβ1-3Galα1-1′Cer, (2S,3S,4R)-2-amino-1-O-(β-D-galactofuranosyl-(1-4)-α-D-galactopyranosyl)-N-[(R)-2-hydroxytetracosanoyl]-1,3,4-octadecanetriol], for which the “proliferation of Vα14 NKT cells, compared with α-GalCer” value (“proliferation … compared with α-GalCer” for short) with Vα14 NKT cells is recorded as “stimulate proliferation of Vα14 NKT cells in mice, although with lower efficiency”.
Consider `CCCCCCCCCCCCCCCCCCCCCCCCCC(=O)N[C@@H](CO[C@H]1O[C@H](CO)[C@@H](O)[C@H](O)[C@H]1O)[C@H](O)[C@H](O)CCCCCCCCCCCCCC` [α-GlcCer, (2S,3S,4R)-1—O-(α-D-glucopyranosyl)-N-hexacosanoyl-2-amino-1,3,4-octadecanetriol], for which the “proliferation … compared with α-GalCer” value in the data set with Vα14 NKT cells is given as “stimulate proliferation of Vα14 NKT cells in mice, although with lower efficiency”.
On to `CCCCCCCCCCCCCCCCCCCCCC[C@@H](O)C(=O)N[C@@H](COC1OC(CO)C(O)C(O)C1OC1OC(CO)C(O)C(O)C1O)[C@H](O)[C@H](O)CCCCCCCCCCCCCC` (stereo partly drawn) [Galα1-2Galα1-1′Cer, (2S,3S,4R)-2-amino-1-O-(α-D-glucopyranosyl-(1-2)-α-D-galactopyranosyl)-N-[(R)-2-hydroxytetracosanoyl]-1,3,4-octadecanetriol], for which the “proliferation … compared with α-GalCer” value in the data set on Vα14 NKT cells is “stimulate proliferation of Vα14 NKT cells in mice, although with lower efficiency”.
On to `CCCCCCCCCCCCCCCCCCCCCCCCCC(=O)N[C@@H](COC1OC(COC2OC(CO)C(O)C(O)C2O)C(O)C(O)C1O)[C@H](O)[C@H](O)CCCCCCCCCCCCCC` (stereo partly drawn) [Galα1-6Galα1-1′Cer, (2S,3S,4R)-2-amino-1—O-(α-D-galactopyranosyl-(1-6)-α-D-galactopyranosyl)-N-hexacosanoyl-1,3,4-octadecanetriol], for which, in the data set on Vα14 NKT cells, the “proliferation … compared with α-GalCer” value is recorded as “stimulate proliferation of Vα14 NKT cells in mice, although with lower efficiency”.
For the compound `CCCCCCCCCCCCCCCCCCCCCCCCCC(=O)N[C@@H](CO[C@H]1O[C@H](CO)[C@H](O)[C@H](O)[C@H]1O)[C@H](O)[C@H](O)CCCCCCCCCCCCCC` [α-GalCer, (2S,3S,4R)-1—O-(α-D-galactopyranosyl)-2-(N-hexacosanoylamino)-1,3,4-octadecanetriol], the liver enzyme activities result in data set [1] was “transient elevation of liver enzyme activities”. Besides, the “α-GalCer-treated, sporozoite-immunized mice protected, experiment 1” value in the data set with P. yoelii sporozoites [2] (1×10^4 γ-spz, challenge with 50 viable sporozoites two weeks later) was “nine out of ten”. For the same compound, the “α-GalCer-treated, sporozoite-immunized mice protected, experiment 2” value in the data set with P. yoelii sporozoites [2] (1×10^5 γ-spz, challenge with 50 live sporozoites four weeks later) is “nine out of ten”. In addition, in the data set with P. yoelii sporozoites [2] (setting [11]), the “% protection (no parasitemia)” value came to 0% and the “Number of mice protected/number challenged” value is recorded as 0/30. The “α-GalCer-treated, γ-spz-immunized mice protected” value in the data set with P. yoelii sporozoites [2] (BALB/c, 1×10^4 γ-spz i.v., challenge 50 viable sporozoites two weeks later) is reported as 28 out of 30. Besides, in the data set on P. yoelii sporozoites [2] (BALB/c, 1×10^7 p.f.u. AdPyCS s.c., challenge 50 viable sporozoites), the “protective effect of sub-optimal dose of AdPyCS with α-GalCer” value is given as “strongly enhanced”. For the same compound, the “protection by α-GalCer alone” value in the data set with P. yoelii sporozoites [2] (BALB/c, no immunogen, challenge 50 viable sporozoites) was “failed to protect”. In addition, the “anti-malaria activity (inhibition of intra-hepatocytic stages), P. yoeli” value in the data set with P. yoeli (mice) is listed as “strong anti-malaria activity”. In the data set with P. yoeli, the “parasite development in the liver of mice lacking either IFN-γ or the IFN-γ receptor” value is listed as “unable to inhibit parasite development”; the “parasites in the liver, α-GalCer two days prior to challenge with live sporozoites” value was “completely eliminates the parasites from the liver”; the “protection against malaria in mice lacking either CD1d or Vα14 NKT cells” value is given as “failed to protect”. Further, in [3], the “IgE, IgG1, IgG2a or IgM isotype profiles of anti-CS antibodies, α-GalCer-treated vs untreated” value was “no significant differences” and the “titers of antibody against the CS protein (ELISA), α-GalCer vs no α-GalCer” value was “identical”. Also, in [4], the “level of HIV-specific CD8+ T cell response vs immunized without α-GalCer” value is on record as about 3 times. Also, the toxicity in monkeys result in data set [5] was “does not induce toxicity”. Also, the “titers of anti-sporozoite antibodies (IFA), α-GalCer vs no α-GalCer” value with P. yoelii sporozoites [6] is listed as “identical”. In addition, the “mice bearing tumors cured” value with B 16-bearing mice (100 μg/kg KRN7000) is 60%. Moreover, the “antimetastatic activities vs OK432, Lentinan and Mitomycin C” value with B 16-bearing mice (B 16-bearing mice) is recorded as “stronger antimetastatic activities”. In addition, in data set [7], the “CD8+ T cell anti-influenza response” value is recorded as “significantly enhances”. Moreover, in the data set on P. berghei, the “anti-malaria activity (inhibition of intra-hepatocytic stages), P. berghei” value is “strong anti-malaria activity”. Further, the “complications in human trials” value in data set [8] is given as “without a notable complication”. The “parasite load in the livers, times smaller than with γ-spz alone” value in the data set with P. yoelii sporozoites [9] (BALB/c mice, 2 μg α-GalCer with 1×10^4 γ-spz i.v., challenge 1×10^4 live sporozoites two weeks later) came out at 10 times. Further, in the data set on P. yoelii sporozoites [9] (setting [12]), the “level of protective anti-malaria immunity, α-GalCer on the same day as γ-spz” value is “highest level of protective anti-malaria immunity”; the “level of protective immunity, α-GalCer two days after γ-spz immunization” value is recorded as “did not significantly enhance”; the “protective immunity, α-GalCer two days prior to γ-spz immunization” value is given as “completely abolished; also recorded: almost completely abolishes”. Moreover, the “protection augmented relative to control, AdPyCS” value in the data set on P. yoelii sporozoites [9] (BALB/c mice, s.c. sub-optimal dose AdPyCS with α-GalCer same day) is recorded as about 10 times. The “protection enhanced, SIN(Mal)” value in the data set on P. yoelii sporozoites [9] (BALB/c mice, s.c. sub-optimal dose SIN(Mal) with α-GalCer same day) came to 3 times. The “γ-spz-induced protective immunity in CD1d-deficient mice” value in the data set on P. yoelii sporozoites [9] (CD1d-deficient mice, BALB/c background, 1×10^4 γ-spz with α-GalCer) is “failed to enhance”. For the same compound, the “γ-spz-induced protective immunity in Jα281-deficient mice” value with P. yoelii sporozoites [9] (Jα281-deficient mice (lack Vα14 NKT cells), 1×10^4 γ-spz with α-GalCer) is given as “failed to enhance”. Moreover, in data set [10], the toxicity in rodents entry is recorded as “does not induce toxicity”.
